Experimental data reported in patent publication US20240368121A1, “ESTROGEN RECEPTOR DEGRADERS, PHARMACEUTICAL COMPOSITIONS THEREOF, AND THEIR THERAPEUTIC APPLICATIONS” (BioTheryX, Inc., priority 2021, published 2024).

Assays:
Type in all cases: cell-based
MCF7 cells = test: Cell viability assay ([…]-GLO, 6-day treatment); conditions: Homo sapiens, MCF7, 144 h; MCF-7 cells, 6 days, CTG; read-out: Inhibition of Cancerous Cells IC50 MCF-7
Method in brief: (§1)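 MCF7 (MEM) and T47D (RPMI with insulin), both with 10% FBS, at 1,000 cells/well, treated with a 10-point compound dose series for 6 days, with medium and compound refreshed once. Viability read by CellTiter-Glo luminescence.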

T47D cells = test: Cell viability assay ([…]-GLO, 6-day treatment); conditions: Homo sapiens, 144 h, 6 days, CTG, read-out: Inhibition of Cancerous Cells IC50 T47D
Method in brief: as §1

ERα = target: T1, ERα (Homo sapiens, UniProt P03372); test: Protein degradation assay: ERα in MCF-7 cells via western blot; conditions: 6 h; for ERα Protein Degradation 1 nM: 1 nM compound; for ERα Protein Degradation 10 nM: 10 nM compound; for ERα Protein Degradation 100 nM: 100 nM compound
T1 construct: degrading an ERα in MCF-7 cells via a western blot; endogenous in cells; host or cells: MCF-7
T1 sequence (P03372 1-595): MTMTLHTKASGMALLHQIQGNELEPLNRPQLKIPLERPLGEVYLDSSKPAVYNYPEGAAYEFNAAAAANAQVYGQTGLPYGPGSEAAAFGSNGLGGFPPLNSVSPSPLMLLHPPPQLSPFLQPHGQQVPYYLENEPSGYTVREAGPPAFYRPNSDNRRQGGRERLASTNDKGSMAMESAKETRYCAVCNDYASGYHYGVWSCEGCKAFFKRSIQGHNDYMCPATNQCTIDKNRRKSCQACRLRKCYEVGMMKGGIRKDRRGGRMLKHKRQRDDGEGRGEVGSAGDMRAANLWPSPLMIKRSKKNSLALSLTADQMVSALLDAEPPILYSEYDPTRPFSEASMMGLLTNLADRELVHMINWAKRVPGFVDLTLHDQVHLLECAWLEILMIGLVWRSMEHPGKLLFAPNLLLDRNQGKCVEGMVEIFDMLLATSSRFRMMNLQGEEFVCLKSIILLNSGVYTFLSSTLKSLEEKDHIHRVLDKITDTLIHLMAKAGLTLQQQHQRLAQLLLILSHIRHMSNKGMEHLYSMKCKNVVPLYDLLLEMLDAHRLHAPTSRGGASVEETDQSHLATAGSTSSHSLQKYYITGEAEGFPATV
Method in brief: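 MCF-7 cells in MEM/10% FBS with insulin, seeded 300,000/well, treated 6 h at set concentrations (e.g., 1 nM–1 μM). Whole-cell lysates immunoblotted for ERα with GAPDH loading control, chemiluminescent detection; percentage degradation reported in binned categories (≥50%, 25–50%, 10–25%, <10%).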

| Compound | IC50 (MCF7 cells) [nM] | IC50 (T47D cells) [nM] | ERα Protein Degradation 1 nM (ERα) | ERα Protein Degradation 10 nM (ERα) | ERα Protein Degradation 100 nM (ERα) |
| --- | --- | --- | --- | --- | --- |
| Cc1c(-c2ccc(O)cc2)n(Cc2ccc(OCCCCN3CCN(c4ccc5c(c4)CN(C4CCC(=O)NC4=O)C5=O)CC3)cc2)c2ccc(O)cc12 (stereo not shown) [Compound E2, 3-(5-(4-(4-(4-((5-Hydroxy-2-(4-hydroxyphenyl)-3-methyl-1H-indol-1-yl)methyl)-phenoxy)butyl)piperazin-1-yl)-1-oxoisoindolin-2-yl)piperidine-2,6-dione] | 0.45 | 0.25 | D (a percentage degradation value of less than 10%) | D (a percentage degradation value of less than 10%) | D (a percentage degradation value of less than 10%) |
| O=C1CCC(N2Cc3cc(C4CCN(CC5CCN(c6ccc([C@@H]7c8ccc(O)cc8CC[C@@H]7c7ccccc7)cc6)CC5)CC4)c(F)cc3C2=O)C(=O)N1 (stereo partly drawn) [Compound A6, 3-(6-fluoro-5-(1-((1-(4-((1R,2S)-6-hydroxy-2-phenyl-1,2,3,4-tetrahydro-naphthalen-1-yl)phenyl)piperidin-4-yl)methyl)piperidin-4-yl)-1-oxoisoindolin-2-yl)piperidine-2,6-dione] | 4 | 0.47 | B (a percentage degradation value of less than 50% and no less than 25%) | B (a percentage degradation value of less than 50% and no less than 25%) | D (a percentage degradation value of less than 10%) |
| O=C1CCC(N2Cc3c(csc3C3CCN(CCCCOc4ccc([C@@H]5c6ccc(O)cc6CC[C@@H]5c5ccccc5)cc4)CC3)C2=O)C(=O)N1 (stereo partly drawn) [Compound A19, 3-(1-(1-(4-(4-((1R,2S)-6-Hydroxy-2-phenyl-1,2,3,4-tetrahydronaphthalen-1-yl)-phenoxy)butyl)piperidin-4-yl)-4-oxo-4H-thieno[3,4-c]pyrrol-5(6H)-yl)piperidine-2,6-dione] | 2.2 | 0.07 | D (a percentage degradation value of less than 10%) | D (a percentage degradation value of less than 10%) | D (a percentage degradation value of less than 10%) |
| O=C1CCC(Nc2cccc(NC3CCN(CC4CCN(c5ccc([C@@H]6c7ccc(O)cc7CC[C@@H]6c6ccccc6)cc5)CC4)CC3)c2)C(=O)N1 (stereo partly drawn) [Compound B14, 3-((3-((1-((1-(4-((1R,2S)-6-hydroxy-2-phenyl-1,2,3,4-tetrahydronaphthalen-1-yl)phenyl)piperidin-4-yl)methyl)piperidin-4-yl)amino)phenyl)amino)piperidine-2,6-dione] | 0.73 | 1.2 | D (a percentage degradation value of less than 10%) | D (a percentage degradation value of less than 10%) | D (a percentage degradation value of less than 10%) |
| Cc1c(-c2ccc(O)cc2)n(Cc2ccc(OCCCCN3CCN(C(=O)COc4cccc5c(C6CCC(=O)NC6=O)nn(C)c45)CC3)cc2)c2ccc(O)cc12 (stereo not shown) [Compound E7, 3-(7-(2-(4-(4-(4-((5-Hydroxy-2-(4-hydroxyphenyl)-3-methyl-1H-indol-1-yl)-methyl)phenoxy)butyl)piperazin-1-yl)-2-oxoethoxy)-1-methyl-1H-indazol-3-yl)piperidine-2,6-dione] | 1.1 | 0.64 | B (a percentage degradation value of less than 50% and no less than 25%) | A (a percentage degradation value of no less than 50%) | A (a percentage degradation value of no less than 50%) |
